From the supplement of paper PMC11208160

Experiment: recombinant UMI read abundance after kanamycin selection (control-corrected) (log10(CPM+1)); higher = more efficient recombination; extreme values may be limits of the assay; sequences stand for … in AGTGCAGAGAAAATCGGCCAGTTTTCTCTGCCTGCAGTCCGCATGCCGTGGGACCCCTTGGGTTCTAACCTGTTGCCTAGATTTATGCAGCGGACTGCCTTTCTCCCAAAGTGATAAACCGG…AGGTTGGTTTCACT; site = the 11-nt donor
How it was run: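 Values, expressed as log10(CPM+1), derive from recombinant UMI counts converted to CPM, averaged across replicates and scaled by control-derived factors. Plating was with IPTG (0.07 mM) plus kanamycin or unselected, two replicates each. The screen pooled donor and donor-binding-loop pairs for the IS621 bridge recombinase in Escherichia coli.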
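Further: IS621 bridge recombinase in Escherichia coli cells against a fixed T5 target plasmid.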

| Sequence | recombinant UMI read abundance (log10) |
| --- | --- |
| CGCGAGTCATGGACCGGTTTTCCCGGTAATCCGTATTTGCC (site CGGGAGTCTGG) | 0 |
| CGCGAGTCATGGACCGGTTTTCCCGGTAATCCGTATTTGCC (site CGTGAGTCTGG) | 0.681 |
| CGCGAGTCATGGACCGGTTTTCCCGGTAATCCGTATTTGTC (site CGCGAGTCTGA) | 2.8 |
| CGCGGGACATGGACCGGTTTTCCCGGTAATCCGTATTTGGC (site CGCGGGACTGC) | 2.25 |
| CGCTAGACATGGACCGGTTTTCCCGGTAATCCGTATTTGAG (site CGATAGACTCT) | 0.0154 |
| CGCTAGACATGGACCGGTTTTCCCGGTAATCCGTATTTGAG (site CGCTAGACTCT) | 1.64 |
| CGCTAGACATGGACCGGTTTTCCCGGTAATCCGTATTTGAG (site CGGTAGACTCT) | 0.181 |
| CGCTAGACATGGACCGGTTTTCCCGGTAATCCGTATTTGAG (site CGTTAGACTCT) | 0.00455 |
| CGCTCCTCATGGACCGGTTTTCCCGGTAATCCGTATTTGCC (site CACTCCTCTGG) | 2.35 |
| CGCTCCTCATGGACCGGTTTTCCCGGTAATCCGTATTTGCC (site CCCTCCTCTGG) | 1.72 |
| CGCTCCTCATGGACCGGTTTTCCCGGTAATCCGTATTTGCC (site CGCTCCTCTGG) | 3.14 |
| CGCTCCTCATGGACCGGTTTTCCCGGTAATCCGTATTTGCC (site CTCTCCTCTGG) | 2.25 |
| CGCTGTCCATGGACCGGTTTTCCCGGTAATCCGTATTTGCA (site CGCTGTCCTTG) | 0.989 |
| CGCTGTGCATGGACCGGTTTTCCCGGTAATCCGTATTTGCA (site CGCTGTGCTTG) | 1.87 |
| CGGAACACATGGACCGGTTTTCCCGGTAATCCGTATTTGCA (site AGGAAGACTTG) | 0.0118 |
| CGGAACACATGGACCGGTTTTCCCGGTAATCCGTATTTGCA (site CGGAACACTTG) | 2.5 |

| Sequence | recombinant UMI read abundance (log10) |
| --- | --- |
| CGGAAGACATGGACCGGTTTTCCCGGTAATCCGTATTTGCC (site AGGAAGACTTG) | 0 |
| CGGAAGACATGGACCGGTTTTCCCGGTAATCCGTATTTGCC (site CGGAAGACTGG) | 2.59 |
| CGGAAGCCATGGACCGGTTTTCCCGGTAATCCGTATTTGTC (site CGGAAGCCTGA) | 0 |
| CGGAAGCCATGGACCGGTTTTCCCGGTAATCCGTATTTGTC (site CGGAATCCTAA) | 0.00548 |
| CGGAATACATGGACCGGTTTTCCCGGTAATCCGTATTTGTT (site CGGAATACTAA) | 2.18 |
| CGGAATACATGGACCGGTTTTCCCGGTAATCCGTATTTGTT (site CGGAATCCTAA) | 0 |
| CGGAATACATGGACCGGTTTTCCCGGTAATCCGTATTTGTT (site CGGAATGCTAA) | 0 |
| CGGAATACATGGACCGGTTTTCCCGGTAATCCGTATTTGTT (site CGGAATTCTAA) | 0 |
| CGGAATCCATGGACCGGTTTTCCCGGTAATCCGTATTTGTG (site CGGAATCCTAA) | 0 |
| CGGAATCCATGGACCGGTTTTCCCGGTAATCCGTATTTGTG (site CGGAATCCTCA) | 0.656 |
| CGGAATCCATGGACCGGTTTTCCCGGTAATCCGTATTTGTG (site CGGAATCCTGA) | 0 |
| CGGAATCCATGGACCGGTTTTCCCGGTAATCCGTATTTGTG (site CGGAATCCTTA) | 0 |
| CGGAATCCATGGACCGGTTTTCCCGGTAATCCGTATTTGTT (site ACGAATCCTAA) | 0.0109 |
| CGGAATCCATGGACCGGTTTTCCCGGTAATCCGTATTTGTT (site AGAAATCCTAA) | 0 |
| CGGAATCCATGGACCGGTTTTCCCGGTAATCCGTATTTGTT (site AGGAAACCTAA) | 0 |
| CGGAATCCATGGACCGGTTTTCCCGGTAATCCGTATTTGTT (site AGGAATCCTAA) | 0 |
